Values of other authors as cited in US20240424024A1, “PHARMACEUTICAL COMPOSITION AND KIT COMPRISING AN IMMUNOMODULATORY SUBSTANCE FOR TREATING DISEASES” (ellennbe GmbH, priority 2021, published 2024).

Test system: perfusion of the skin
Settings: 50 μl of 20 mmol/l MN, healthy subjects, Laser Speckle Contrast Imager; Elawa et al. 2020

Structure (SMILES): COC(=O)c1cccnc1 [methyl nicotinate]
- perfusion increase of the skin after topical application: reaches a stable plateau phase after five minutes
